Literature values as cited in patent publication US11369617B2, “Prostacyclin analogue formulations” (CAMURUS AB, priority 2016, dated 2022).

Settings: regular s.c. administration

## CCCCC[C@H](O)CC[C@@H]1[C@H]2Cc3cccc(OCC(=O)O)c3C[C@H]2C[C@H]1O [treprostinil]
  administration-site pain, patients experiencing it: 85 % of patients
Almost all due to site pain
  withdrawals due to adverse events: 23 % of the long-term study population
